Experimental findings from patent publication US9580390B2, “Indazole compounds as kinase inhibitors and method of treating cancer with same” (University Health Network, priority 2011, dated 2017) are described below.

A value given as a limit tells only on which side of the number the result lay.

In experiment [1] the test system is colon cancer cells (HCT116). Kind of experiment: Cancer cell line growth inhibition (SRB assay). The experiment is classed as cell-based. The conditions noted are these: Homo sapiens, HCT-116; HCT116 colon cancer cells, SRB assay; read-out: Cancer Cell Line GI50 Range HCT116. Background: The SRB assay estimates cell density from bound dye.
Experiment [2] deals with ovarian cancer cells (PA-1). Kind of experiment: Cancer cell line growth inhibition (SRB assay). The experiment is classed as cell-based. The following applies: PA-1 ovarian cancer cells, SRB assay; read-out: Cancer Cell Line GI50 Range PA-1.

For the compound `CO[C@@H](C(=O)Nc1ccc2[nH]nc(-c3ccc(O[C@@H]4CCN(C)C[C@@H]4F)cc3)c2c1)c1ccccc1` (relative stereo) [Example A135, (R)-N-(3-(4-(((3S,4R)-3-fluoro-1-methylpiperidin-4-yl)oxy)phenyl)-1H-indazol-5-yl)-2-methoxy-2-phenylacetamide], the concentration for 50% growth inhibition (GI50) in experiment [1] and in experiment [2] was 100 to 500 nM each time. For the compound `COC(C(=O)Nc1ccc2[nH]nc(-c3ccc(N4CCC(O)CC4)cc3)c2c1)c1ccsc1` (stereo not drawn) [Example A87, N-(3-(4-(4-hydroxypiperidin-1-yl)phenyl)-1H-indazol-5-yl)-2-methoxy-2-(thiophen-3-yl)acetamide], the GI50 in experiment [1] and in experiment [2] was 100 to 500 nM throughout. For the compound `CN(C)C(=O)CN1CCC(Oc2ccc(-c3n[nH]c4ccc(C(=O)NC(c5ccccc5)C5CC5)cc34)cc2)CC1` (stereo not drawn) [Example A158, N-(cyclopropyl(phenyl)methyl)-3-(4-((1-(2-(dimethylamino)-2-oxoethyl)piperidin-4-yl)oxy)phenyl)-1H-indazole-5-carboxamide], the concentration for 50% growth inhibition (GI50) in experiment [1] and in experiment [2] was 100 to 500 nM in each case. `O=C(NC(c1ccccc1)C1CC1)c1ccc2[nH]nc(-c3ccc(OCCN4CCOCC4)cc3)c2c1` (stereo not drawn) [Example A140, N-(cyclopropyl(phenyl)methyl)-3-(4-(2-morpholinoethoxy)phenyl)-1H-indazole-5-carboxamide]: the GI50 in experiment [1] and in experiment [2] was 100 to 500 nM throughout. As for `CN1CCC(Oc2ccc(-c3n[nH]c4ccc(C(=O)NC(c5ccsc5)C5CCC5)cc34)cc2)CC1` (stereo not drawn) [Example A121, N-(cyclobutyl(thiophen-3-yl)methyl)-3-(4-((1-methylpiperidin-4-yl)oxy)phenyl)-1H-indazole-5-carboxamide], the GI50 in experiment [1] and in experiment [2] was under 100 nM throughout. As for `CCc1cccc(CC)c1NC(=O)Nc1ccc2[nH]nc(-c3ccc(C4CN(C)CCO4)cc3)c2c1` (stereo not drawn) [Example A124, 1-(2,6-diethylphenyl)-3-(3-(4-(4-methylmorpholin-2-yl)phenyl)-1H-indazol-5-yl)urea], the GI50 in experiment [1] and in experiment [2] was 100 to 500 nM each time.

Regarding `COc1cc(-c2n[nH]c3ccc(C(=O)NC(c4ccccc4)C4CC4)cc23)ccc1OC1CCN(C2COC2)CC1` (stereo not drawn) [Example A194, N-(cyclopropyl(phenyl)methyl)-3-(3-methoxy-4-((1-(oxetan-3-yl)piperidin-4-yl)oxy)phenyl)-1H-indazole-5-carboxamide], the GI50 in experiment [1] and in experiment [2] was 100 to 500 nM throughout. For the compound `CN1CCC(Oc2ccc(-c3n[nH]c4ccc(NC(=O)C5CCCc6ccccc65)cc34)cc2)CC1` (stereo not drawn) [Example A18], the GI50 in experiment [1] and in experiment [2] was 100 to 500 nM throughout.

`COCCN1CCC(Oc2ccc(-c3n[nH]c4ccc(C(=O)N[C@H](COC)c5ccccc5)cc34)cc2)CC1` [Example A164, (S)-N-(2-methoxy-1-phenylethyl)-3-(4-((1-(2-methoxyethyl)piperidin-4-yl)oxy)phenyl)-1H-indazole-5-carboxamide]: the GI50 in experiment [1] and in experiment [2] was 100 to 500 nM throughout. Regarding `COc1cc(-c2n[nH]c3ccc(C(=O)NC(c4ccccn4)C4CC4)cc23)ccc1OC1CCN(C=O)CC1` (stereo not drawn) [Example A206, N-(cyclopropyl(pyridin-2-yl)methyl)-3-(4-((1-formylpiperidin-4-yl)oxy)-3-methoxyphenyl)-1H-indazole-5-carboxamide], the GI50 in experiment [1] and in experiment [2] was 100 to 500 nM throughout.

`CN1CCC(Oc2ccc(-c3n[nH]c4ccc(C(=O)NC(c5ccccc5Cl)C5CCCC5)cc34)cc2)CC1` (stereo not drawn) [Example A199, N-((2-chlorophenyl)(cyclopentyl)methyl)-3-(4-((1-methylpiperidin-4-yl)oxy)phenyl)-1H-indazole-5-carboxamide]: the GI50 in experiment [1] and in experiment [2] was 100 to 500 nM throughout. Consider `CN1CCC(Oc2ccc(-c3n[nH]c4ccc(C(=O)N[C@@H](CCO)c5ccccc5)cc34)cc2)CC1` [Example A125, (S)-N-(3-hydroxy-1-phenylpropyl)-3-(4-((1-methylpiperidin-4-yl)oxy)phenyl)-1H-indazole-5-carboxyamide], for which the GI50 in experiment [1] and in experiment [2] was 100 to 500 nM each time. Regarding `CN1CCC(Oc2ccc(-c3n[nH]c4ccc(C(=O)NCC(c5ccccc5)C5CCCC5)cc34)cc2)CC1` (stereo not drawn) [Example A207, N-(2-cyclopentyl-2-phenylethyl)-3-(4-((1-methylpiperidin-4-yl)oxy)phenyl)-1H-indazole-5-carboxamide], the GI50 in experiment [1] and in experiment [2] was 100 to 500 nM in each case. Consider `CN1CCC(Oc2ccc(-c3n[nH]c4ccc(C(=O)NCc5ccccc5CN5CCOCC5)cc34)cc2)CC1` [Example A109, 3-(4-(1-Methylpiperidin-4-yloxy)phenyl)-N-(2-(morpholinomethyl)benzyl)-1H-indazole-5-carboxamide], for which the values for the GI50 in experiment [1] and in experiment [2] were over 500 nM and 100 to 500 nM, respectively. Take `O=C(Nc1ccc2[nH]nc(-c3ccc(N4CC(O)C4)cc3)c2c1)C(c1ccsc1)N1CCCC1` (stereo not drawn) [Example A120, N-(3-(4-(3-Hydroxyazetidin-1-yl)phenyl)-1H-indazol-5-yl)-2-(pyrrolidin-1-yl)-2-(thiophen-3-yl)acetamide]: the GI50 in experiment [1] and in experiment [2] was under 100 nM in each case. Consider `O=C(Nc1ccc2[nH]nc(-c3ccc(N4CCC(O)CC4)cc3)c2c1)C(c1cccs1)N1CCCC1` (stereo not drawn) [Example A88, N-(3-(4-(4-hydroxypiperidin-1-yl)phenyl)-1H-indazol-5-yl)-2-(pyrrolidin-1-yl)-2-(thiophen-2-yl)acetamide], for which the GI50 in experiment [1] and in experiment [2] was under 100 nM each time. Take `CN1CCC(Oc2ccc(-c3n[nH]c4ccc(C(=O)NCc5ccccc5N5CCOCC5)cc34)cc2)CC1` [Example A108, 3-(4-(1-Methylpiperidin-4-yloxy)phenyl)-N-(2-morpholinobenzyl)-1H-indazole-5-carboxamide]: the GI50 in experiment [1] and in experiment [2] was 100 to 500 nM throughout. Regarding `CC(C)N1CCC(Oc2ccc(-c3n[nH]c4ccc(NC(=O)C(c5ccsc5)N5CCCC5)cc34)cc2)CC1` (stereo not drawn) [Example A30, N-(3-(4-((1-isopropylpiperidin-4-yl)oxy)phenyl)-1H-indazol-5-yl)-2-(pyrrolidin-1-yl)-2-(thiophen-3-yl)acetamide], the GI50 (usually the concentration giving 50% growth inhibition) in experiment [1] is under 100 nM. `CN1CCC(Oc2ccc(-c3n[nH]c4ccc(NC(=O)Nc5c(Cl)cccc5Cl)cc34)cc2)CC1` [Example A76, 1-(2,6-dichlorophenyl)-3-(3-(4-((1-methylpiperidin-4-yl)oxy)phenyl)-1H-indazol-5-yl)urea]: the GI50 in experiment [1] was under 100 nM.

`O=C(Nc1ccc2[nH]nc(-c3ccc(OCCN4CCCC4)cc3)c2c1)C(c1ccsc1)N1CCCC1` (stereo not drawn) [Example A44, 2-(pyrrolidin-1-yl)-N-(3-(4-(2-(pyrrolidin-1-yl)ethoxy)phenyl)-1H-indazol-5-yl)-2-(thiophen-3-yl)acetamideamide]: the GI50 in experiment [1] was under 100 nM. Still for that read-out and setting: then `CN1CCN(Cc2ccc(-c3n[nH]c4ccc(NC(=O)C(c5ccsc5)N5CCCC5)cc34)cc2)CC1` (stereo not drawn) [Example A67, N-(3-(4-((4-methylpiperazin-1-yl)methyl)phenyl)-1H-indazol-5-yl)-2-(pyrrolidin-1-yl)-2-(thiophen-3-yl)acetamide], with 100 to 500 nM; and `O=C(Nc1ccc2[nH]nc(-c3ccc(CCN4CCOCC4)cc3)c2c1)C(c1ccsc1)N1CCCC1` (stereo not drawn) [Example A6, N-(3-(4-(2-morpholinoethyl)phenyl)-1H-indazol-5-yl)-2-(pyrrolidin-1-yl)-2-(thiophen-3-yl)acetamide], with 100 to 500 nM.

`O=C(Nc1ccc2[nH]nc(-c3cccc(CN4CCOCC4)c3)c2c1)C(c1ccsc1)N1CCCC1` (stereo not drawn) [Example A1, N-(3-(3-(morpholinomethyl)phenyl)-1H-indazol-5-yl)-2-(pyrrolidin-1-yl)-2-(thiophen-3-yl)acetamide]: in experiment [1], the GI50 was over 500 nM. Still for that read-out and setting: the same measure for `CN1CCN(c2ccc(-c3n[nH]c4ccc(NC(=O)C(c5ccsc5)N5CCCC5)cc34)cc2)CC1` (stereo not drawn) [Example A2, N-(3-(4-(4-methylpiperazin-1-yl)phenyl)-1H-indazol-5-yl)-2-(pyrrolidin-1-yl)-2-(thiophen-3-yl)acetamide]: under 100 nM; for `CN1CCOc2cc(-c3n[nH]c4ccc(NC(=O)C(c5ccsc5)N5CCCC5)cc34)ccc21` (stereo not drawn) [Example A17, N-(3-(4-methyl-3,4-dihydro-2H-benzo[b][1,4]oxazin-7-yl)-1H-indazol-5-yl)-2-(pyrrolidin-1-yl)-2-(thiophen-3-yl)acetamide]: over 500 nM.

`O=C(Nc1ccc2[nH]nc(-c3ccc4c(c3)OCCCO4)c2c1)C(c1ccsc1)N1CCCC1` (stereo not drawn) [Example A20, N-(3-(3,4-dihydro-2H-benzo[b][1,4]dioxepin-7-yl)-1H-indazol-5-yl)-2-(pyrrolidin-1-yl)-2-(thiophen-3-yl)acetamide]: the 50% growth inhibitory concentration (GI50) in experiment [1] lay in the range of 100 to 500 nM. Consider `CN1CCc2cc(-c3n[nH]c4ccc(NC(=O)C(c5ccsc5)N5CCCC5)cc34)ccc21` (stereo not drawn) [Example A16, N-(3-(1-methylindolin-5-yl)-1H-indazol-5-yl)-2-(pyrrolidin-1-yl)-2-(thiophen-3-yl)acetamide], for which, in experiment [1], the concentration for 50% growth inhibition (GI50) was in the range of 100 to 500 nM. Still for that read-out and setting: the same measure for `C[C@H](NC(=O)c1ccc2[nH]nc(-c3ccc(N4CCOCC4)cc3)c2c1)C1CCCCC1` [Example A40, (S)-N-(1-cyclohexylethyl)-3-(4-morpholinophenyl)-1H-indazole-5-carboxamide]: 100 to 500 nM; for `CN1CCC(Oc2ccc(-c3n[nH]c4ccc(NC(=O)Nc5ccccc5Cl)cc34)cc2)CC1` [Example A62, 1-(2-chlorophenyl)-3-(3-(4-((1-methylpiperidin-4-yl)oxy)phenyl)-1H-indazol-5-yl)urea]: over 500 nM.

Regarding `O=C(N[C@H](c1ccccc1)C1CC1)c1ccc2[nH]nc(-c3ccc(N4CCOCC4)cc3)c2c1` [Example A49, (S)-N-(cyclopropyl(phenyl)methyl)-3-(4-morpholinophenyl)-1H-indazole-5-carboxamide], in experiment [1], the 50% growth inhibitory concentration (GI50) fell in the range of 100 to 500 nM. In the case of `C[C@@H](NC(=O)c1ccc2[nH]nc(-c3ccc(N4CCOCC4)cc3)c2c1)c1cccs1` [Example A53, (R)-3-(4-morpholinophenyl)-N-(1-(thiophen-2-yl)ethyl)-1H-indazole-5-carboxamide], in experiment [1], the 50% growth inhibitory concentration (GI50) is 100 to 500 nM.
